The text below walks through data of patent US5063224A, “R-cefuroxime axetil” (priority 1990, dated 1991).

The nature of data set [1]: Hydrolysis in dog gut cell (intestine) preparation (Example 6). It counts as in vitro ADME. How it is done:
About 18 inches of intestine was removed from a 13 month old male dog weighing 11.5 kg. The intestine section was washed several times with Sorenson's solution, and then sliced open lengthwise. The intestine cells were collected by scraping the inner surface of the intestine with a glass microscope slide, and provided 6.10 g of cell tissue. The cell tissue was placed in 30.5 ml of Sorenson's pH 7.5 phosphate buffer. The mixture was homogenized for 30 seconds with a Tek-Mar tissuemizer. The resulting suspension was centrifuged at 4° C. at 3500 rpm for 15 minutes.
Following the general procedure of Example 2, 0.277 mg of R-cefuroxime axetil was dissolved in 50 ml of Sorenson's pH 7.4 buffer, and 0.263 mg of S-cefuroxime axetil was dissolved in 50 ml of Sorenson's pH 7.4 buffer.
Triplicate tubes of 2.75 ml of the R-cefuroxime axetil solution, and triplicate tubes of the S-cefuroxime axetil solution, were allowed to equilibrate to 37° C., and then 0.25 ml of the intestine mixture from above was added to each tube. Aliquot samples were withdrawn every 30 minutes for two hours, and each 200 μl of 10% aqueous trichloroacetic acid and 100 μl of acetonitrile. […] The assays were analyzed for unchanged R- or S-cefuroxime axetil and afforded the following results.

The subject of data set [2] is esterase enzymes in blood serum. Put plainly: Hydrolysis by esterase enzymes in dog blood serum (Example 5). Type of data set: in vitro ADME. On the procedure: The following study was conducted to establish that S-cefuroxime axetil is hydrolyzed to cefuroxime acid much more rapidly by esterase enzymes in blood serum than the R-cefuroxime axetil of this invention.
Blood serum was obtained from an 11.5 kg male dog two days prior to sacrifice. The whole blood was centrifuged for fifteen minutes at 3500 rpm and 4° C. The serum thus collected was diluted with ten parts Sorenson's phosphate buffer pH 7.4.
A solution was prepared by dissolving 0.29 mg of R-cefuroxime axetil in 50 ml of Sorenson's phosphate buffer pH 7.4. Another solution was prepared by dissolving 0.26 mg of S-cefuroxime acetil in 50 ml of Sorenson's phosphate buffer pH 7.4.
Triplicate test tubes containing 2.75 ml of the R-cefuroxime axetil solution, and triplicate tubes containing 2.75 ml of the S-cefuroxime axetil solution, were each heated to 37° C. and diluted with 0.25 ml of the serum preparation from above. Aliquot portions (200 μl each) from each tube were drawn at thirty minute intervals, diluted with 100 μl of 10% aqueous trichloracetic acid, and 100 μl of acetonitrile. The samples were centrifuged at 3000 rpm for five minutes to precipitate the proteins, and then transferred to autosampler tubes for determination of cefuroxime free acid content. Analysis was conducted using a Beckman 344 gradient high performance liquid chromatography column packed with zorbox C18 reverse phase, with an eluant comprised of 40 parts methanol and 60 parts water. Standard integration of HPLC curves were carried out to convert the area to a mg/ml equivalent.

A short description of a further data set: physchem. It counts as physicochemical. The settings on record: organic solvent or mixture. On the procedure:
The substantially pure R-cefuroxime axetil of this invention is prepared by selectively solubilizing the R-isomer in a solvent in which the S-isomer is only minimally soluble relative to the R-isomer. Solvents commonly employed are those in which the R-isomer is about six times more soluble in a given volume than the S-isomer. […] Generally, a mixture of R and S-cefuroxime axetil, prepared as described in GB 2,145,409A, and containing the R and S-isomers, is added to a solvent to form a slurry. The best results are obtained employing a solvent that provides sufficient solubility to maintain the desired volume at a minimum. Preferred solvents include alcohols such as methanol and ethanol. […] In isopropanol at 25° C., the R-isomer is 1.84 mg/ml, and the S-isomer is 0.44 mg/ml. In n-butanol at 25° C., the R-isomer is 1.0 mg/ml and the S-isomer is 0.3 mg/ml. In ethyl acetate at 25° C., the R-isomer is 13.42 mg/ml, and the S-isomer is 10.0 mg/ml.

The conditions of data set [3]: oral administration; cited from earlier work.
Data set [4] is described as follows: Microbiological assay of biological potency (Example 2 product). Conditions: product with 85% by weight R- and 15% S-cefuroxime axetil.

Values after ≈ are worked out from the molar mass of the structure shown.

As a reminder, the solubility is how much of the substance goes into solution per volume. On to `CO/N=C(\C(=O)N[C@@H]1C(=O)N2C(C(=O)O[C@@H](C)OC(C)=O)=C(COC(N)=O)CS[C@H]12)c1ccco1` [S-cefuroxime axetil, reference compound], for which the “hydrolysis rate relative to R-cefuroxime axetil in intestinal preparations” value in data set [1] is reported as “about 3 fold”. In data set [1] (vs R-cefuroxime axetil), the “hydrolysis in the dog gut (in words)” value was “hydrolyzed much more rapidly”. Moreover, in data set [2], the “hydrolysis rate relative to R-cefuroxime axetil in blood serum” value is recorded as “about 25 fold”. Also, in data set [2] (vs R-cefuroxime axetil), the “hydrolysis in blood serum (in words)” value is reported as “hydrolyzed much more rapidly”. For the same molecule, the solubility was roughly 2980 µg/mL (≈ 5.84 mM) in “physchem” (ethanol); 10000 µg/mL (≈ 19.6 mM) in “physchem” (ethyl acetate); 440 µg/mL (≈ 0.862 mM) in “physchem” (isopropanol); 90000 µg/mL (≈ 176 mM) in the data set “physchem” (methanol); 300 µg/mL (≈ 0.588 mM) in the data set “physchem” (n-butanol).

As for `CO/N=C(\C(=O)N[C@@H]1C(=O)N2C(C(=O)OC(C)OC(C)=O)=C(COC(N)=O)CS[C@H]12)c1ccco1` (mixture of isomers) [R,S-mixture of cefuroxime axetil, 1-acetoxyethyl ester of cefuroxime], in data set [3], the “bioavailability of the cefuroxime antibiotic” value is recorded as “about fifty”.

Take `CO/N=C(\C(=O)N[C@@H]1C(=O)N2C(C(=O)O[C@H](C)OC(C)=O)=C(COC(N)=O)CS[C@H]12)c1ccco1` [R-cefuroxime axetil]: in data set [4], the biological potency was 99%. In addition, the “half-life (in words)” value in data set [2] was “longer half-life”. Moreover, the solubility in “physchem” (ethanol) was 12000 µg/mL (≈ 23.5 mM); in “physchem” (ethyl acetate) it was 13400 µg/mL (≈ 26.3 mM); in the data set “physchem” (isopropanol), 1840 µg/mL (≈ 3.6 mM); in “physchem” (methanol), 391000 µg/mL (≈ 767 mM); in the data set “physchem” (n-butanol), 1000 µg/mL (≈ 1.96 mM).
